Data on seven compounds can be found in ChEMBL document CHEMBL4431301, “The Medicinal Chemistry of Dengue Virus” (J Med Chem, 2016).

Data set [1] has as its system dengue virus type 1. Put plainly: Antiviral activity against Dengue virus 1 infected in monkey LLC-MK2 cells assessed as reduction in viral infection at 2 to 5 uM by focus forming unit assay. On the set-up: scale not given: the % may be the effect or the level left. The format is functional.
The test system of data set [2] is dengue virus type 2. Put plainly: Antiviral activity against Dengue virus 2 infected in monkey LLC-MK2 cells assessed as reduction in viral infection at 2 to 5 uM by focus forming unit assay. The format is functional. On the set-up: scale not given: the % may be the effect or the level left.
Data set [3] deals with dengue virus type 3. Briefly: Antiviral activity against Dengue virus 3 infected in monkey LLC-MK2 cells assessed as reduction in viral infection at 2 to 5 uM by focus forming unit assay. In kind it is functional. On the set-up: scale not given: the % may be the effect or the level left.
Data set [4] deals with dengue virus type 4. Put plainly: Antiviral activity against Dengue virus 4 infected in monkey LLC-MK2 cells assessed as reduction in viral infection at 2 to 5 uM by focus forming unit assay. The format is functional. On the set-up: scale not given: the % may be the effect or the level left.
Data set [5] concerns the target T1, Genome polyprotein (dengue virus type 2, UniProt P29990). Put plainly: Inhibition of Dengue virus 1 NS2B-NS3 protease expressed in Escherichia coli using Abz-RRRRSAG-nY-NH2 as substrate preincubated for 20 mins followed by addition of substrate measured after 60 mins by fluorescence assay. On the set-up: species or system dengue virus type 1.
The target of data set [6] is T1, Genome polyprotein. Put plainly: Inhibition of Dengue virus 2 NS2B-NS3 protease expressed in Escherichia coli using Abz-RRRRSAG-nY-NH2 as substrate preincubated for 20 mins followed by addition of substrate measured after 60 mins by fluorescence assay.
Data set [7] deals with T1, Genome polyprotein. Briefly: Inhibition of Dengue virus 3 NS2B-NS3 protease expressed in Escherichia coli using Abz-RRRRSAG-nY-NH2 as substrate preincubated for 20 mins followed by addition of substrate measured after 60 mins by fluorescence assay. On the set-up: species or system dengue virus type 3.
Data set [8] deals with DEN4V NS2B-G4SG4NS3 serine protease (Dengue virus type 4, UniProt P09866). Briefly: Inhibition of Dengue virus 4 NS2B-NS3 protease expressed in Escherichia coli using Abz-RRRRSAG-nY-NH2 as substrate preincubated for 20 mins followed by addition of substrate measured after 60 mins by fluorescence assay.
Data set [9] deals with dengue virus type 1. Put plainly: Antiviral activity against Dengue virus 1 Hawaii infected in african green monkey Vero cells assessed as blockage of viral entry after 72 hrs by foci-forming assay. The format is functional, organism-based.
For data set [10], the system named is dengue virus type 2. Briefly: Antiviral activity against Dengue virus 2 16681 infected in african green monkey Vero cells assessed as blockage of viral entry after 72 hrs by foci-forming assay. The format is functional, organism-based. The note with it: Dengue virus, 16681, Vero.
In data set [11] the test system is dengue virus type 3. Put plainly: Antiviral activity against Dengue virus 3 H87 infected in african green monkey Vero cells assessed as blockage of viral entry after 72 hrs by foci-forming assay. In kind it is functional, organism-based.
Data set [12] relates to dengue virus type 4. Put plainly: Antiviral activity against Dengue virus 4 H241 infected in african green monkey Vero cells assessed as blockage of viral entry after 72 hrs by foci-forming assay. In kind it is functional, organism-based.
Data set [13] has as its target T1, Genome polyprotein. Briefly: Inhibition of recombinant Dengue virus 2 S-16803 NS2B-NS3 protease using Bz-nKRRAMC as substrate preincubated with enzyme followed by substrate addition measured after 20 mins by fluorescence assay.
Data set [14] relates to dengue virus type 2. Put plainly: Antiviral activity against Dengue virus 2 NGC infected in human A549 cells assessed as reduction in viral envelope protein production after 48 hrs by CFI assay. In kind it is functional, organism-based. The note with it: A549, 48 h.
The test system of data set [15] is dengue virus type 2. Put plainly: Antiviral activity against Dengue virus 2 NGC infected in BHK21 cells assessed as reduction in viral titer after 48 hrs by plaque assay. In kind it is functional, organism-based. The note with it: BHK-21, 48 h.
Data set [16] relates to dengue virus type 1. Briefly: Antiviral activity against Dengue virus 1 West Pacific infected in BHK21 cells assessed as reduction in viral titer after 48 hrs by plaque assay. In kind it is functional, organism-based. To be noted: BHK-21, 48 h.
In data set [17] the test system is dengue virus type 3. Briefly: Antiviral activity against Dengue virus 3 H87 infected in BHK21 cells assessed as reduction in viral titer after 48 hrs by plaque assay. The format is functional, organism-based. To be noted: H87, BHK-21, 48 h.
The test system of data set [18] is dengue virus type 4. Briefly: Antiviral activity against Dengue virus 4 H241 infected in BHK21 cells assessed as reduction in viral titer after 48 hrs by plaque assay. The format is functional, organism-based. The note with it: H241, BHK-21, 48 h.
Data set [19] concerns the target T1, Genome polyprotein. Briefly: Inhibition of the Dengue virus 2 NS2B-NS3 protease expressed in Escherichia coli BL21(DE3)-RIPL cells using Pyr-RTKR-AMC as substrate preincubated for 30 mins followed by addition of substrate.
For data set [20], the system named is dengue virus type 2. Briefly: Antiviral activity against Dengue virus 2 NGC infected in BHK21 cells assessed as reduction in virus replication after 24 hrs by renilla luciferase reporter gene assay. The format is functional, organism-based. To be noted: BHK-21, 24 h. A general note: In a reporter assay the amount or activity of a reporter protein is the signal.

The nature of data set [21]: Cytotoxicity against BHK21 cells assessed as cell viability after 24 hrs by ATP-Lite assay. The format is cell-based, Mesocricetus auratus, BHK-21. The note with it: hamster.
Data set [22] deals with dengue virus type 1. Briefly: Antiviral activity against Dengue virus 1 P03-08 infected in african green monkey Vero cells assessed as reduction in virus replication after 72 hrs by foci-forming assay. In kind it is functional, organism-based. The note with it: P03-08, Vero.
Data set [23] relates to dengue virus type 2. Briefly: Antiviral activity against Dengue virus 2 NGC infected in african green monkey Vero cells assessed as reduction in virus replication after 72 hrs by foci-forming assay. The format is functional, organism-based.
Data set [24] has as its system dengue virus type 3. Put plainly: Antiviral activity against Dengue virus 3 P12-08 infected in african green monkey Vero cells assessed as reduction in virus replication after 72 hrs by foci-forming assay. The format is functional, organism-based. The note with it: P12-08, Vero.
The subject of data set [25] is dengue virus type 4. Put plainly: Antiviral activity against Dengue virus 4 P11-08 infected in african green monkey Vero cells assessed as reduction in virus replication after 72 hrs by foci-forming assay. In kind it is functional, organism-based. The note with it: P11-08, Vero.
Data set [26] is described as follows: Cytotoxicity against african green monkey Vero cells after 72 hrs by MTT assay. To be noted: chlorocebus sabaeus. In kind it is cell-based. For orientation: Tetrazolium dyes change colour on reduction, which living cells bring about.

pEC50, pIC50, pKi: −log10 of the molar value. Where a SMILES comes first, the peptide text is derived from it.

T1 sequence (P29990 1346-1475 limits assumed): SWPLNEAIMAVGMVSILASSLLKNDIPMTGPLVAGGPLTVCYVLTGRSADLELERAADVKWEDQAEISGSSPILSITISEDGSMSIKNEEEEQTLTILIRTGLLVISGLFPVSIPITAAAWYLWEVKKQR
T1 sequence (P29990 1476-2093 limits assumed): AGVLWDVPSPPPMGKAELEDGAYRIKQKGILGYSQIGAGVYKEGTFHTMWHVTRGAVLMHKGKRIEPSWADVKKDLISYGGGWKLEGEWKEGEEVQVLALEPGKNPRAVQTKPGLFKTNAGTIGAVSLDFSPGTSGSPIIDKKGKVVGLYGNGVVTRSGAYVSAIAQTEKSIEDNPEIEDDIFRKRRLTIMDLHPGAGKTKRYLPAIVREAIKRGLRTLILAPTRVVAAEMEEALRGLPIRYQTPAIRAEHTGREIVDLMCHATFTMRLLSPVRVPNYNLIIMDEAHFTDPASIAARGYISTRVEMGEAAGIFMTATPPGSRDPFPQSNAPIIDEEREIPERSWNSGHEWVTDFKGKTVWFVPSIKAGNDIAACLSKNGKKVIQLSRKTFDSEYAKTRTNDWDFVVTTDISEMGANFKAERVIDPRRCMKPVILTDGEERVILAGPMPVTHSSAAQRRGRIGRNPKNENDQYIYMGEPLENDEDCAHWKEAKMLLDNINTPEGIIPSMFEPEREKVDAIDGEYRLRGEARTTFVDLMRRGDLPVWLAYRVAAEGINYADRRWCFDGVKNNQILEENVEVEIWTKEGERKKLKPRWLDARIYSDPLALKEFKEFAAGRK

For the compound `CC[C@H](C)[C@H](NC(=O)[C@H](C)NC(=O)CNC(=O)[C@H](Cc1ccccc1)NC(=O)[C@@H](NC(=O)[C@H](CCC(N)=O)NC(=O)[C@H](Cc1cnc[nH]1)NC(=O)[C@H](CC(C)C)NC(=O)[C@H](C)NC(=O)[C@H](CCCCN)NC(=O)CNC(=O)[C@@H](NC(=O)[C@H](CO)NC(=O)[C@@H](NC(=O)[C@H](Cc1ccccc1)NC(=O)[C@@H](NC(=O)CNC(=O)CNC(=O)[C@H](CC(C)C)NC(=O)[C@H](CO)NC(=O)CNC(=O)[C@H](Cc1ccccc1)NC(=O)[C@H](CC(=O)O)NC(=O)[C@H](Cc1c[nH]c2ccccc12)NC(=O)[C@H](C)NC(=O)[C@@H](NC(=O)[C@H](CC(=O)O)NC(=O)CNC(=O)[C@H](CC(C)C)NC(=O)[C@@H](NC(=O)[C@H](C)NC(=O)[C@@H](N)CCSC)[C@@H](C)CC)[C@@H](C)O)C(C)C)[C@@H](C)O)[C@@H](C)CC)C(C)C)C(=O)N[C@@H](Cc1ccc(O)cc1)C(=O)O` (H-MAILGDTAWDFGSLGGVFTSIGKALHQVFGAIY-OH), the Activity in the data set with dengue virus type 1 [1], with dengue virus type 2 [2], in the data set on dengue virus type 3 [3] and with dengue virus type 4 [4] was 50% in each case.
For the compound `NC(=O)[C@H](Cc1c[nH]c2ccccc12)NC(=O)[C@H](CS)NC(=O)[C@H](Cc1ccc(O)cc1)NC(=O)[C@@H](N)Cc1c[nH]c2ccccc12` (H-WYCW-NH2), the pKi at Genome polyprotein [5] is 5.38; on Genome polyprotein [6], 5.32; on Genome polyprotein [7], 4.61; in data set [8], 4.95.
Take `CC[C@H](C)[C@H](NC(=O)[C@H](Cc1c[nH]c2ccccc12)NC(=O)[C@@H](NC(=O)[C@H](CCC(=O)O)NC(=O)[C@@H](NC(=O)[C@H](CCCNC(=N)N)NC(=O)[C@H](CCC(N)=O)NC(=O)[C@@H](NC(=O)[C@H](Cc1cnc[nH]1)NC(=O)[C@H](CCCCN)NC(=O)[C@H](Cc1c[nH]c2ccccc12)NC(=O)[C@H](C)NC(=O)CNC(=O)[C@H](CCC(=O)O)NC(=O)[C@H](CO)NC(=O)[C@H](CO)NC(=O)[C@H](CCSC)NC(=O)[C@H](Cc1c[nH]c2ccccc12)NC(=O)[C@@H](NC(=O)[C@H](CCC(=O)O)NC(=O)[C@@H](NC(=O)[C@H](CCCNC(=N)N)NC(=O)[C@@H](NC(=O)[C@H](CCC(=O)O)NC(=O)[C@H](CC(C)C)NC(=O)CNC(=O)[C@H](CCSC)NC(=O)CNC(=O)[C@@H](NC(=O)[C@H](Cc1cnc[nH]1)NC(=O)[C@@H]1CCCN1C(=O)[C@@H](NC(=O)[C@H](CC(C)C)NC(=O)[C@H](C)NC(=O)[C@@H](NC(=O)[C@@H](N)CO)C(C)C)C(C)C)C(C)C)[C@@H](C)O)[C@@H](C)O)[C@@H](C)O)C(C)C)[C@@H](C)CC)[C@H](C)O)C(=O)N[C@@H](CC(C)C)C(=O)N[C@@H](CCCNC(=N)N)C(=O)N[C@@H](Cc1cnc[nH]1)C(=O)N1CCC[C@H]1C(=O)NCC(=O)O`: the pEC50 in the data set with dengue virus type 1 [9], in the data set with dengue virus type 2 [10], in the data set with dengue virus type 3 [11] and in the data set with dengue virus type 4 [12] was 4.51 to 4.62 each time.
In the case of `N#C/C(=C\c1ccc(-c2ccc(C(=O)O)cc2)s1)c1nc2cc(Cl)ccc2[nH]1`, on Genome polyprotein [13], the pIC50 is 5.23.
Take `COc1ccc(-c2csc(NC(=O)c3cc(C(C)(C)C)cc(C(C)(C)C)c3)n2)cc1`: the pEC50 in the data set with dengue virus type 2 [14] is 6.00; in the data set on dengue virus type 2 [15], 5.80; in the data set on dengue virus type 1 [16] it was 5.39 to 6.00; with dengue virus type 3 [17], 5.39 to 6.00; with dengue virus type 4 [18] it was 5.39 to 6.00.
For `Nc1cc(N)c(/N=N/c2ccc(S(=O)(=O)Nc3nccs3)cc2)cc1/N=N/c1ccc(S(=O)(=O)Nc2nccs2)cc1`, the pIC50 at Genome polyprotein [19] is 5.56. Moreover, the negative logarithm of the EC50 (pEC50) with dengue virus type 2 [20] was 4.40. Moreover, in data set [21], the CC50 at 24 h amounted to 213 µM.
As to `Cc1ccc(S(=O)(=O)Nc2cc(SCC(=O)O)c(O)c3ccccc23)cc1[N+](=O)[O-]`, the pEC50 in the data set on dengue virus type 1 [22] is 6.01; in the data set on dengue virus type 2 [23] it was 6.01; in the data set on dengue virus type 3 [24], 5.61; in the data set with dengue virus type 4 [25], 6.13. Also, the CC50 at 72 h in data set [26] worked out at 67.3 µM.

As usually defined, the pKi is −log10 of the Ki, conventionally taken in molar units. The term pEC50 denotes −log10 of the EC50, conventionally taken in molar units. A word on the pIC50: it is the IC50 on a negative log10 scale, so that one unit is a factor of ten. The CC50 is the concentration that lowers cell viability or growth by half.
